Measured values from article PMC7913927, “Leishmanicidal Activity of Betulin Derivatives in Leishmania amazonensis; Effect on Plasma and Mitochondrial Membrane Potential, and Macrophage Nitric Oxide and Superoxide Production” (Microorganisms, 2021).
“Also recorded” adds a separate entry of the source.

System: L. (L.) amazonensis LTB0016, VE98MR and VE2000MM promastigotes
Experiment: Plasma membrane potential (ΔΨp), bisoxonol fluorescence
Type: cell-based, Leishmania amazonensis
Conditions: promastigotes of LTB0016, VE98MR, VE2000MM; 15 min; 18: 1 and 2 µM; vs untreated
Description: To evaluate the plasma membrane potential (ΔΨp), the fluorescent compound, bisoxonol, bis[1,3-diethylthiobarbituric acid] trimethine oxonol, was used, as well as a method optimized by Padrón-Nieves et al.. Initially, calibration curves for each strain, using increasing concentrations of KCl (0.5 to 75 mM), were performed in the late log growth phase Leishmania promastigotes in the presence of the potassium ionophore valinomycin. By this procedure, fluorescence values could be transformed into millivolts (mV), applying the Nernst equation, ΔΨp = −59.4 log(120/[KCl]). […] After 10 min of incubation in the dark, fluorescence was measured in a Victor^2 Wallac spectrofluorometer (Perkin Elmer, Turku, Finland), using the appropriate wavelengths (ex: 540 nm/em: 580 nm). […] Once the corresponding calibration curve for each strain was obtained, the effect of compounds on the ΔΨp was evaluated. […] After 10 min of incubation in the dark, fluorescence was measured, using the appropriate wavelengths (ex: 540 nm/em: 580 nm). […] To transform the fluorescence values in millivolts (mV), calibration curves were prepared using increasing concentrations of KCl (0.5, 1.15, 2.5, 5, 10, 20, 40, and 75 mM). […]

C=C(C)C1CCC2(C=NO)CCC3(C)C(CCC4C5(C)CCC(=NO)C(C)(C)C5CCC43C)C12 (stereo not shown) [Compound 18]
Effect on plasma membrane potential (ΔΨp): significantly depolarized; also recorded: significantly depolarize the ΔΨp in all evaluated strains; also recorded: the collapse of the plasma membrane potential (ΔΨp) in a concentration-dependent way
